The text below walks through data of patent US7250258B2 (priority 2003, dated 2007).

Data set [1] deals with AD patients. As to conditions: presence of the ApoE4 allele; cited from earlier work.
Data set [2] deals with Caucasian patients diagnosed with Alzheimer's Disease. The experiment in a line: Clinical association of CDK5 haplotype copy number with galantamine response (ΔADAS-cog responder vs non-responder, logistic regression). It counts as in vivo, human. How it is done:
Following 3, 5, 6 or 12 months of treatment in the GAL-INT2, GAL-USA 10, GAL-INT-1 and SAB-USA-25 trials, respectively, the severity of symptoms in patients were evaluated using the cognitive subscale of the Alzheimer's Disease Assessment Scale (ADAS-cog) (Rosen et al., supra; Rockwood et al., supra; Tariot et al., supra; Wilcock et al., supra). The ADAS-cog measures cognitive function, including spoken language ability, comprehension of spoken language, recall of test instructions, word-finding difficulty in spontaneous speech, following commands, naming objects and fingers, constructional praxis, ideational praxis, orientation, word-recall task and word-recognition task (Alzheimer's Insights Online, supra).
For the clinical association study described in Example 2 below, 174 patients were selected and used to populate two groups in a tailed sampling strategy, intended to enrich alleles correlating with drug response in the population. […] Patients were assigned to responder and non-responder groups based on having a change in ADAS-cog score (ΔADAS-cog) that met a cut-off value that was chosen based on the differences in treatment times in the four clinical trials described above. The ΔADAS-cog cut-off values and treatment times used for each responder and non-responder group from each of the four clinical trials are shown in Table 6 below.
The statistical analyses compared ΔADAS-cog in patients with one copy vs. zero copies, two copies vs. zero copies, and two copies vs. one copy (within a patient's genome) of a particular allele, using a logistic regression analysis on two-degrees of freedom to associate clinical response with a particular haplotype. The following covariates were also included: age, gender, history, smoking, ADAS-cog baseline, dose (BID), body mass index, and CYP2D6. The logistic regression included assessment of associations between the haplotypes and the binary outcome of clinical response.
For the results obtained on the analyses, adjustments were made for multiple comparisons, using a permutation test (MULTIVARIATE PERMUTATION TESTS: WITH APPLICATIONS IN BIOSTATISTICS, Pesarin, John Wiley and Sons, New York, 2001). In this test, a sub-haplotype's data for each observation were kept constant, while all the remaining variables (outcome and covariates) were randomly permuted so that covariates always stayed with the same outcome. The permutation model was fitted for each of the several haplotypes, and the lowest p-value was kept. In total, 1000 permutations were done.

Data set [3] has as its system AD patients. The conditions noted are these: galantamine therapy; cited from earlier work.

Take `Nc1c2c(nc3ccccc13)CCCC2` [tacrine]: in the data set with AD patients [1], the “response to treatment in presence of ApoE4 polymorphism” value is “reduced response to treatment”.
As to `COc1ccc2c3c1O[C@H]1C[C@@H](O)C=C[C@@]31CCN(C)C2` [galantamine], the “Subject Count for Haplotype with Highest Level Response” value in data set [2] (haplotype (1), 0 copies, of 41 subjects) was 26 (0); in data set [2] (haplotype (1), 1 copy, of 88 subjects), 46 (1); in data set [2] (haplotype (1), 2 copies, of 45 subjects), 13 (2); in data set [2] (haplotype (2), 0 copies, of 41 subjects) it was 26 (0); in data set [2] (haplotype (2), 1 copy, of 88 subjects), 46 (1); in data set [2] (haplotype (2), 2 copies, of 45 subjects), 13 (2). Also, in the data set with AD patients [3], the “most common side effects” value is “nausea, vomiting, diarrhea, dizziness and anorexia”.
